From patent US20090076111A1, “Methods for improving glycemic control in humans” (priority 2004, published 2009)

Assays:
[1] = Preclinical oral bioavailability and urinary excretion of 4-OH-Ile in PROMILIN; type: in vivo, rat; conditions: rats
Experimental: In addition to the human clinical portion of the study, preclinical trials were conducted in rats to assess if the 4-OH-Ile in PROMILIN™ is orally bioavailable to rats and if it is excreted in their urine.

pancreatic beta cell = conditions: major isomer (2S,3R,4S), micromolar concentrations, glucose dependent; cited from earlier work

Structure (SMILES): CC(O)C(C)C(N)C(=O)O (racemic) [4-OH-Ile, 4-hydroxyisoleucine]
- oral bioavailability ([1]; 4-OH-Ile in PROMILIN, oral): bioavailable
- time to absorption from the gut into the circulation ([1]; both diastereomers, after oral gavage of PROMILIN): ≤ 15 min
- urinary excretion ([1]; both isomers): excreted in the urine
- appearance of 4-OH-Ile in the circulation ([1]; coadministration of glucose and PROMILIN): slowed the appearance
- glucose-induced insulin secretion (pancreatic beta cell): stimulate glucose-induced insulin secretion
